# Source: patent publication US20040247571A1, “Neural cells expressing tyrosine hydroxylase” (priority 2001, published 2004)
# B1: GDNF: Glial cell-line Derived Neurotrophic Factor (protein, UniProt P39905 78-211, looked up)
# Glial cell line-derived …: SPDKQMAVLPRRERNRQAAAANPENSRGKGRRGQRGKNRGCVLTAIHLNVTDLGLGYETKEELIFRYCSGSCDAAETTYDKILKNLSRNRRLVSDKVGQACCRPIAFDDDLSFLDDNLVYHILRKHSAKRCGCI
# B2: IL-1α: Interleukin (protein, UniProt P01583 113-271, looked up)
# Interleukin-1 alpha: SAPFSFLSNVKYNFMRIIKYEFILNDALNQSIIRANDQYLTAAALHNLDEAVKFDMGAYKSSKDDAKITVILRISKTQLYVTAQDEDQPVLLKEMPEIPKTITGSETNLLFFWETHGTKNYFTSVAHPNLFIATKQDYWVCLAGGPPSITDFQILENQA
# Test system: Human neural progenitor cells expanded in EGF/bFGF/LIF (991013FBr)
# Experiment: Importance of the various factors for TH induction
# Assay type: cell-based
# Details: one factor omitted from the cocktail of Example 1, 3 days
# Procedure: Cultures of human neural progenitors established from human fetal forebrain expanded in N2 medium supplemented with EGF/bFGF/LIF or EGF/bFGF/CNTF as indicated were mechanically passaged and maintained in expansion medium for 5-7 days. The small spheres were then plated on glass coverslips coated with poly-L-lysine (PLL, 100 μg/ml) and laminin (50 μg/ml) at a cell density of 100.000 cells/cm^2 in N2 medium containing 1% FBS for “default differentiation” or in N2 medium supplemented with aFGF (100 ng/ml), BDNF (50 ng/ml), forskolin (25 μM), DA (10 μM), TPA (100 nM), dbcAMP (100 μM), GDNF (20 ng/ml), IGFI (100 ng/ml), IL-1α (200 pg/ml). N2 medium consists of DMEM:F12 (1:1) supplemented with N2 (insulin, transferrin, selenium, progesterone and putrescine), 0.6% glucose and 5 mM HEPES. After 3 days incubation, cells were fixed in 4% paraformaldehyde in PBS for 20 min at room temperature. The cells were washed three times with PBS, followed by overnight incubation with primary antibody (rabbit anti-TH, PelFreez 1:100 or Chemicon 1:800) diluted in PBS incubation buffer which contained 10% normal goat serum, 0.3% Triton X-100 (Sigma) and 1% BSA at 4° C. in a humidified chamber. The cells were washed with PBS, and incubated for 1 hr at room temperature in the dark with secondary antibody (anti-rabbit Cy3, (Chemicon 1:500) diluted in incubation buffer. After washing with PBS, nuclei were counterstained with DAPI or Hoechst 33342. Negative controls (omission of the primary antibody) were included in each experiment.
# To quantify the percentage of TH cells, cells were counted in at least three fields from three to six independent coverslips randomly chosen using a 20× objective. The number of TH-immunoreactive cells in each field was counted. The total cell number was obtained by counting nuclei counterstained with DAPI or Hoechst 33342.
# Human neural progenitor cells expanded in EGF/bFGF/LIF (991013FBr) cells were seeded as small spheres (5 days after trituration to single cell suspension) on PLL/laminin coated 12 mm coverslips at a cell density of 100.000 cells/cm^2 in N2 medium containing different combinations of the factors described in Example 1. After incubation for 3 days, cells were fixed in 4% PFA and immunostained for TH as described in Example 1.
row,Molecule,effect of omitting the factor from the cocktail on induction of TH positive cells
1,"NCCc1ccc(O)c(O)c1 [dopamine, reference compound]",did not affect induction of TH positive cells
2,BDNF: Brain Derived Neurotrophic Factor,did not affect induction of TH positive cells
3,"IGF-I: Insulins (IGF-I, IGF-II, insulin)",did not affect induction of TH positive cells
4,B1,did not affect induction of TH positive cells
5,B2,did not affect induction of TH positive cells

# Same assay, conditions: same concentration (100 ng/ml), 3 days
row,Molecule,effect of replacing FGF-1/aFGF in the cocktail on TH immunoreactive cells
1,FGF-2/bFGF: basic fibroblast growth factor,without any effect on numbers or morphology of TH immunoreactive cells
